Results reported in paper PMC9139161, “Phenolics from Chrozophora oblongifolia Aerial Parts as Inhibitors of α-Glucosidases and Advanced Glycation End Products: In-Vitro Assessment, Molecular Docking and Dynamics Studies” (Biology, 2022).
Blank lines part the entries; values can stand above or below the compound they belong to.

What was measured:
[1] = Metal chelation assay (ferrozine); details: concentration-response curve
Description: Isolated compounds were dissolved in DMSO to prepare a concentration of 0.5 mg/mL, meanwhile, the positive control (EDTA) was used to prepare a stock solution of 100 µM in water; from which six concentrations were prepared including 5, 10, 20, 40, 50 and 80 µM to construct the dose-response curve. The assay was carried out as previously reported, with minor modifications. Briefly, in 96 wells plate (n = 6) 20 µL of the freshly prepared ferrous sulfate (0.3 mM) was mixed with 50 µL of the tested compound and incubated with 30 µL of ferrozine (0.8 mM) for 10 min at room temperature. Finally, reduction in color intensity was assessed at 540 nm using a microplate reader (Tecan, San Jose, CA, USA). Data are represented as means (n = 3) ± SD and the antioxidant effect of the extracts was calculated as µM EDTA equivalents by substitution in the linear regression equation (Supplementary Figure S4).

[2] = system: advanced glycation end products (AGEs) formation, arginine-methylglyoxal model; assay: AGEs formation inhibition, arginine-methylglyoxal assay; type: biochemical; details: AGEs fluorescence, 72 h, 37 °C; read-out: Arginine-Methylglyoxal Model IC50 (Mean ± SE)
Description: (§1) The isolated compounds were prepared at final concentrations of 500 µM in DMSO in the BSA-fructose assay, and 1000 µM in all other AGEs assays. Compounds that exceeded 50% inhibition at this concentration were serially diluted to determine their IC50. All tests were conducted using quercetin (positive control).
The determination of the inhibitory effect of the isolated compounds on the formation of AGEs in the arginine methylglyoxal model was used as described previously with slight modification. Briefly, in black 96-microwell plates, a sample was incubated for 72 h at 37 °C in the dark with methylglyoxal (53.3 mM, in distilled water) and 106.6 mM arginine (in 200 mM phosphate buffer, pH 7.4, with 0.02% sodium azide), (1:1:1 v/v/v). On a microplate reader (Fluostar Omega/BMG Labtech/Germany), fluorescent AGEs were detected using excitation and emission wavelengths of 355 nm and 460 nm, respectively. Triplicates of all experiments were performed.

[3] = system: advanced glycation end products (AGEs) formation, BSA-fructose model; assay: AGEs formation inhibition, BSA-fructose assay; type: biochemical; details: AGEs fluorescence, 72 h, 37 °C; read-out: BSA-Fructose Model IC50 (Mean ± SE)
Description: as §1
According to the previous report, the inhibition test for AGE formation was assessed using the BSA-fructose model. Briefly, BSA (50 mg/mL) and fructose (1.25 M) (in 200 mM phosphate buffer, pH 7.4, with 0.02% sodium azide) were incubated with Sample/blank in the dark for 72 h at 37 °C, (1:1:1 by volume). On a microplate reader (Fluostar Omega BMG Labtech, Ortenberg, Germany), fluorescent AGEs were detected using excitation and emission wavelengths of 355 nm and 460 nm, respectively. Triplicates of all experiments were performed, and the percentage of AGEs inhibition was calculated.

[4] = system: advanced glycation end products (AGEs) formation, BSA-methylglyoxal model; assay: AGEs formation inhibition, BSA-methylglyoxal assay; type: biochemical; details: AGEs fluorescence, 72 h, 37 °C; read-out: BSA-Methylglyoxal Model IC50 (Mean ± SE)
Description: as §1
AGEs inhibitory activity of the isolated compounds was determined according to the reported procedures with slight modification. Briefly, in black 96-microwell plates, samples were incubated for 72 h at 37 °C in the dark with bovine serum albumin (BSA, 50 mg/mL) (in 200 mM phosphate buffer, pH 7.4, with 0.02% sodium azide) and methyl-glyoxal (53.3 mM, in distilled water), (1:1:1 v/v/v). On a microplate reader (Fluostar Omega/BMG Labtech/Germany), fluorescent AGEs were detected using excitation and emission wavelengths of 355 nm and 460 nm, respectively. Triplicates of all experiments were performed.

[5] = ABTS assay; details: concentration-response curve
Description: DMSO was used for the preparation of 0.5 mg/mL concentrations of isolated compounds, meanwhile, the positive control (ascorbic acid) was used to prepare a stock solution of 1000 µM in water; from which seven concentrations were prepared including 7.812, 15.625, 31.25, 62.5, 125, 250 and 500 µM to construct the concentration-response curve (Supplementary Data Figure S2). The activity of the tested compounds to scavenge the free radicals of ABTS (2,2′-azino-bis (3-ethylbenzothiazoline-6-sulfonic acid)) was assessed according to the methodology reported previously with slight modifications.
Five milliliters of aqueous solution (7 mM) of ABTS was mixed with 88 µL potassium persulfate (140 mM) and the mixture was kept in the dark for 16 h to produce ABTS radical cation (ABTS^•+). Then methanol was added to the reaction mixture to dilute the formed ABTS^•+ solution to an absorbance of 0.700 (1:50) at 690 nm.
Ten microliters of the tested compound were incubated with 190 μL of ABTS^•+ solution in a 96-well plate for thirty minutes in the dark and the absorbance was measured later using a microplate reader (TECAN, Männedorf, Switzerland) at 690 nm. Data are represented as means (n = 3) ± SD and the antioxidant effect of the tested compounds was calculated as µM Ascorbic acid equivalents by substitution in the linear regression equation (Supplementary Figure S2).

[6] = DPPH assay; details: read-out: DPPH assay IC50 (Mean ± SE)
Description: Isolated compounds were prepared in final concentrations of 1000 µM in DMSO. Compounds that exceeded 50% inhibition at this concentration were serially diluted to determine their IC50. Ascorbic acid was used as a positive control, prepared in a concentration of 100 µM in water from which six concentrations were prepared to calculate its IC50. The method is based on the reduction of free radical of 2,2-diphenyl-1-picrylhydrazyl (DPPH). Briefly, in a 96-well plate, 20 μL of the isolated compound was incubated for 20 min in the absence of light with 180 μL of DPPH reagent (100 μM). The reduction of intensity in the color of DPPH was assessed on a microplate reader (TECAN, Männedorf, Switzerland) at 540 nm (Supplementary Table S2).

SMILES: O=C(O)CN(CCN(CC(=O)O)CC(=O)O)CC(=O)O [EDTA, reference compound]
Metal chelation % inhibition ([1]; 5 µM): 8.429%
Metal chelation % inhibition ([1]; 10 µM): 13.464%
Metal chelation % inhibition ([1]; 20 µM): 19.624%
Metal chelation % inhibition ([1]; 40 µM): 41.866%
Metal chelation % inhibition ([1]; 50 µM): 48.303%
Metal chelation % inhibition ([1]; 80 µM): 72.307%

IC50 [2]: 536 µM
IC50 [3]: 62 µM
IC50 [4]: 941 µM
SMILES: O=c1c(O)c(-c2ccc(O)c(O)c2)oc2cc(O)cc(O)c12 [Quercetin, quercetin, reference compound]

IC50 [6]: 28 µM
SMILES: O=C1O[C@H]([C@@H](O)CO)C(O)=C1O [ascorbic acid, Ascorbic acid]
ABTS % inhibition ([5]; 7.8125 µM): 2.8930%
ABTS % inhibition ([5]; 15.625 µM): 3.7803%
ABTS % inhibition ([5]; 31.25 µM): 5.5156%
ABTS % inhibition ([5]; 62.5 µM): 9.7291%
ABTS % inhibition ([5]; 125 µM): 16.88%
ABTS % inhibition ([5]; 250 µM): 33.5451%
ABTS % inhibition ([5]; 500 µM): 62.86%
